Assay results as given in ChEMBL document CHEMBL2016440, “Overcoming fluconazole resistance in Candida albicans clinical isolates with tetracyclic indoles” (Bioorg Med Chem Lett, 2012).
The source made the active and inactive calls. No cut-off for these calls is given here.

Experiments:
Candida albicans [1] = test: Antifungal activity against fluconazole-resistant Candida albicans isolate 2 assessed as growth inhibition after 48 hrs by alamar blue fluorescence assay in presence of 8 ug/ml fluconazole; assay type: functional, organism-based; conditions: isolate 2, 48 h
Candida albicans [2] = test: Antifungal activity against fluconazole-resistant Candida albicans isolate 8 assessed as growth inhibition after 48 hrs by alamar blue fluorescence assay in presence of 8 ug/ml fluconazole; assay type: functional, organism-based; conditions: isolate 8, 48 h
NIH3T3 [3] = test: Cytotoxicity against mouse 3T3 cells; assay type: cell-based
Candida albicans [4] = test: Antifungal activity against Candida albicans assessed as growth inhibition after 48 hrs by alamar blue fluorescence assay; assay type: functional, organism-based
Candida albicans [5] = test: Antifungal activity against fluconazole-sensitive Candida albicans SC5314 assessed as growth inhibition at 7.5 ug/ml after 24 hrs by alamar blue fluorescence assay; assay type: functional, organism-based
Candida albicans [6] = test: Antifungal activity against fluconazole-sensitive Candida albicans SC5314 assessed as growth inhibition at 7.5 ug/ml after 24 hrs by alamar blue fluorescence assay in presence of fluconazole; assay type: functional; conditions: SC5314, 24 h, read-out: GI
Candida albicans [7] = test: Antifungal activity against fluconazole-sensitive Candida albicans SC5314 assessed as growth inhibition at 1 ug/ml after 24 hrs by alamar blue fluorescence assay; assay type: functional, organism-based
Candida albicans [8] = test: Antifungal activity against fluconazole-sensitive Candida albicans SC5314 assessed as growth inhibition at 8 ug/ml after 24 hrs by alamar blue fluorescence assay; assay type: functional, organism-based
NIH3T3 [9] = test: Cytotoxicity against mouse 3T3 cells at 0.2 to 26 uM; assay type: cell-based; conditions: nih3t3, 26 µM

Structure (SMILES)	IC50 (Candida albicans [1])	IC50 (Candida albicans [2])	other results
O=C(Cn1c2ccccc2c2ccncc21)N1CCCCC1	> 26 µM	> 26 µM	
O=C(O)Cn1c2ccc(F)cc2c2nc3n(c(=O)c21)CCS3	> 26 µM	> 26 µM	
O=C(Cn1c2ccc(F)cc2c2nc3n(c(=O)c21)CCS3)N1CCC(F)(F)C1	1.1 µM	1.1 µM	
O=C(Cn1c2ccc(F)cc2c2nc3n(c(=O)c21)CCS3)N1CC=CC1	0.5 µM	> 26 µM	
O=C(Cn1c2ccccc2c2nc3n(c(=O)c21)CCS3)N1CCC(F)(F)CC1	> 10 µM	> 26 µM	
O=C(Cn1c2ccc(F)cc2c2nc3n(c(=O)c21)CCS3)N1CCCC1	0.6 µM	18.9 µM	
COc1ccc2c(c1)c1nc3n(c(=O)c1n2CC(=O)N1CCC(Cc2ccccc2)CC1)CCS3	> 26 µM	> 26 µM	
O=C(Cn1c2ccccc2c2nc3n(c(=O)c21)CCS3)N1CCOCC1	4.3 µM	6.6 µM	
CCN(CC)C(=O)Cn1c2ccccc2c2nc3n(c(=O)c21)CCS3	2.3 µM	> 26 µM	
O=C(Cn1c2ccccc2c2nc3n(c(=O)c21)CCS3)N1CCCC1	1.1 µM	1.9 µM	IC50 (NIH3T3 [3]): > 26 µM; IC50 (Candida albicans [4]): > 26 µM; growth inhibition (GI) (Candida albicans [5]): inactive; inhibition of growth at 7.5 µg/mL (Candida albicans [6]): 96%
CN1CCN(C(=O)Cn2c3ccccc3c3nc4n(c(=O)c32)CCS4)CC1	7.1 µM	22.5 µM	
Oc1c2nc3ccc(F)cc3c-2nc2n1CCS2	3.8 µM	7.1 µM	
COc1ccc2c(c1)c1nc3n(c(=O)c1n2CC(=O)N1CCC(C)CC1)CCS3	> 26 µM	> 26 µM	
CC1(O)CN(C(=O)Cn2c3ccccc3c3nc4n(c(=O)c32)CCS4)C1	> 10 µM	> 26 µM	
O=C(Cn1c2ccccc2c2nc3n(c(=O)c21)CCS3)N1CC=CC1	1.8 µM	3.1 µM	
C[C@@H]1[C@H](O)[C@@H](C)/C=C/C=C/C=C/C=C/C=C/C=C/C=C/[C@H](O[C@@H]2O[C@H](C)[C@@H](O)[C@H](N)[C@@H]2O)C[C@@H]2O[C@](O)(C[C@@H](O)C[C@@H](O)[C@H](O)CC[C@@H](O)C[C@@H](O)CC(=O)O[C@H]1C)C[C@H](O)[C@H]2C(=O)O			growth inhibition (GI) (Candida albicans [7]): Active
OC(Cn1cncn1)(Cn1cncn1)c1ccc(F)cc1F			growth inhibition (GI) (Candida albicans [8]): inactive

Structure (SMILES)	IC50 (Candida albicans [1])	IC50 (Candida albicans [2])	other results
O=C(Cn1c2ccccc2c2nc3n(c(=O)c21)CCS3)N1CCC(F)(F)C1	5.9 µM	10.2 µM	
O=C(Cn1c2ccccc2c2nc3n(c(=O)c21)CCS3)N1CCCCC1	1.9 µM	2.9 µM	
O=C(Cn1c2ccc(F)cc2c2nc3n(c(=O)c21)CCS3)N1CCCCC1	0.5 µM	> 26 µM	
CC1CCN(C(=O)Cn2c3ccccc3c3nc4n(c(=O)c32)CCCS4)CC1	12.1 µM	21.3 µM	
CCN(CC)C(=O)Cn1c2ccc(F)cc2c2nc3n(c(=O)c21)CCS3	0.5 µM	> 26 µM	
O=C(O)Cn1c2ccccc2c2nc3n(c(=O)c21)CCS3	> 10 µM	> 26 µM	
Oc1c2nc3ccccc3c-2nc2n1CCS2	> 10 µM	15.7 µM	
O=C(Cn1c2ccccc2c2nc3n(c(=O)c21)CCS3)NCCc1ccc(Cl)cc1	> 10 µM	23.4 µM	
CC1CCN(C(=O)Cn2c3ccc(F)cc3c3nc4n(c(=O)c32)CCCS4)CC1	2.7 µM	11.7 µM	
COC(=O)Cn1c2ccccc2c2nc3n(c(=O)c21)CCS3	7.9 µM	13.3 µM	
CC1CCN(CCn2c3ccccc3c3nc4n(c(=O)c32)CCS4)CC1	> 10 µM	> 26 µM	
COC(=O)Cn1c2ccc(F)cc2c2nc3n(c(=O)c21)CCS3	3.5 µM	6 µM	
O=C(Cn1c2ccc(F)cc2c2nc3n(c(=O)c21)CCS3)N1CCC(F)(F)CC1	0.7 µM	> 26 µM	
O=C(Cn1c2ccc(F)cc2c2nc3n(c(=O)c21)CCS3)N1CCCCCC1	2.2 µM	> 26 µM	
CC1CCN(C(=O)Cn2c3ccccc3c3nc4n(c(=O)c32)CCS4)CC1	3.2 µM	5.5 µM	IC50 (NIH3T3 [3]): > 26 µM; Activity (NIH3T3 [9]): Non-toxic
COc1ccc(NC(=O)Cn2c3ccccc3c3nc4n(c(=O)c32)CCS4)cc1	> 10 µM	> 26 µM	
